Entries after “also recorded” stand apart in the source; their conditions may differ. Where two headings read alike, the source gives them in different places.
How the values were obtained:
[1] = Plasma concentration versus time profile after a single oral gavage dose, LC-MS/MS; format: in vivo, Hy-line brown hens; conditions: for time until plasma concentration below the limit of quantitation: 1 mg/kg single oral gavage, LOQ 0.5 ng/mL; for Tmax: female, Hy-line brown, in vivo
Protocol: (§1) Seventy-five, 61-week-old, Hy-line brown hens weighing 1.6–2.4 kg were housed in individual, 22” × 24” × 16” cages with nest box curtains and scratch pads, on two levels. Hens were acclimatized for 1 week on a 16-h light:8-h dark cycle. A wall exhaust fan maintained the temperature between 17–19 °C. A standard layer diet containing corn and soybean meal, 4.9% calcium and 16.5% protein was available ad libitum (Webberville Feed & Grain Co., Webberville, MI, USA). Water was available ad libitum. Hens were weighed and randomly assigned to one of three treatment groups (n = 5 hens/group) that received imidacloprid at 1 and 10% of a reported LD50 for chickens corresponding to 1 and 10 mg/kg of IMI or a placebo treatment (Lafeber Nutristart 1:3 in water; Lafeber Co., Cornell, Il, USA).[14] Birds were fasted overnight. Prior to gavage, crops were palpated to ensure that they were empty.
(§2) Analytical grade (active) imidacloprid powder (ChemService, West Chester, PA, USA) was dissolved in ethanol (10% v/v), mixed with corn oil, and then further dissolved in Lafeber Nutristart (1:3 in water; Lafeber Co., Cornell, Il, USA) to obtain final concentrations of 0.8 or 0.08 mg/mL.[8],[14] Treatments were prepared on the morning of administration, protected from light, kept on ice, and mixed thoroughly prior to administration. The concentrations and purity of IMI were verified before the start of the trial. IMI was administered by oral gavage using a 60-cc syringe and a 10 Fr × 16 in. red rubber urethral feeding catheter. After each administration, the catheter was flushed with 5 mL of water. Birds received a similar volume of treatment or placebo (20–30 mL).
(§3) Approximately 2–3 mL of blood was sampled from the brachial vein at 1, 2, 4, 24, 48, and 168 h postexposure, transferred into 2 mL EDTA tubes, sat at room temperature for 1–2 h, centrifuged at 1200g for 10 min, plasma was transferred into microcentrifuge tubes, and samples were kept at 4 °C until analysis within 1 week of study completion. Birds were humanely euthanized by cervical dislocation (n = 5 hens/treatment/time point). At 1, 4, 24, 48, and 168 h postexposure, approximately 1.0 g from the left pectoralis major, left quadriceps, left liver lobe, coelomic fat pad, spleen, right cranial and middle kidney lobes, and brain (cerebrum, optic lobes, cerebellum, brainstem) were collected, placed in Whirl-Pak sample bags (Nasco Sampling LLC, Madison, WI, USA), and kept at −20 °C until analysis. Whole eggs that were spontaneously laid or near completion in the shell gland were collected at 24 (n = 27), 48 (n = 24), 72 (n = 13), and 168 h (n = 12) after treatment and cracked in half, and yolk and albumen were kept in screw top specimen containers at −20 °C until analysis. […] Doses and time points were based on similar studies done in chickens[8] and Japanese Quail.[7] All animal procedures were approved by the Institutional Animal Care and Use Committee (IACUC) at MSU no. PROTO202300371.
Neonicotinoids were extracted from 200 μL of plasma, which was added to a test tube with […] of 0.5 ng/mL ISTD in acetonitrile. The mixture was vortexed for 40 s until well-mixed and then centrifuged for 5 min at 3000g. The supernatant was removed and filtered through a 0.2 μm PTFE membrane filter into an autosampler vial for LC-MS/MS analysis.
Analysis was performed with a liquid chromatographic-tandem mass spectrometer, an AB Sciex 6500+ ESI-MS/MS (SCIEX, Framingham, MA, USA) interfaced to a Shimadzu LC (Shimadzu Corp, Kyoto, Japan). Chromatography was achieved using the Kinetex F5:2.6 μm (100 mm × 3 mm) column (Phenomenex, Torrance, CA, USA). The column temperature was maintained at 40 °C with a column heater. Injection volume was 10 μL. The mobile phase consisted of 0.1% formic acid in Milli-Q water (mobile phase A) and 0.1% formic acid in acetonitrile (mobile phase B) at a flow rate of 0.5 mL/min. […]

[2] = Distribution of IMI and metabolites in tissues, eggs and feces after a single oral gavage dose, LC-MS/MS; format: in vivo; conditions: for metabolite abundance in tissues: 1 and 10 mg/kg IMI single oral gavage, all sampled tissues; for metabolite concentrations in eggs versus regulatory thresholds: eggs within 24 h postexposure to IMI
Protocol: as §1, §2, §3
Tissues were prepared for analysis by sectioning 0.5 g of homogeneous tissue (free of connective and vascular tissue) and placing it in a 7 mL Precellys bead tissue homogenization tube. Egg yolk and albumin from individual eggs were homogenized with an Omni International (Kennesaw, GA, USA) 125/TM125-11 hand-held homogenizer with a stainless steel 7 mm generator probe. Similar to tissues, 0.5 g of egg homogenate was placed in a 7 mL Precellys bead tissue homogenization tube. Two milliliters of acetonitrile containing 1 ng/mL of ISTD was added. Tissues were homogenized at room temperature with a Precellys Evolution Homogenizer (Bertin Technologies, Montigny-Le-Bretonneux, France): Speed–4500g, Cycle 2 × 20 s with a 20 s pause between cycles. The homogenized tissues and egg were centrifuged at 5400g for 10 min to pellet solid material at the bottom of the tube. 250 μL of the clear top layer from each tube was transferred to an autosampler vial for LC-MS/MS analysis. […]

[3] = cited from earlier work
[4] = IMI equivalents (sum of IMI and 6-chloropyridinyl moiety metabolites) in poultry products versus CFR/EFSA tolerance; set-up: species or system Hy-line brown hens; conditions: in vivo
Description: The specific absorption, distribution, metabolism, and excretion profile of IMI in laying hens and the presence of IMI and its metabolites in eggs are unknown. Therefore, the primary goal of this study was to evaluate food safety in the context of IMI’s temporal distribution and metabolite profile. To achieve this, IMI and its 6-chloropyridinyl moiety-containing metabolites (IMI-urea, IMI-olefin, desnitro-IMI, 5-OH-IMI, and 6-chloronicotinic acid) were quantitatively measured in blood, tissue, feces, and eggs following a single subclinical dose over time. These concentrations were measured using a liquid chromatography tandem mass spectrometry (LC-MS/MS) method and compared with tolerances established in the Code of Federal Regulations (CFR) and Article 12 of the European Food Safety Authority (EFSA) Regulation No 396/2005.[12],[13]
as §3
Tissues were prepared for analysis by sectioning 0.5 g of homogeneous tissue (free of connective and vascular tissue) and placing it in a 7 mL Precellys bead tissue homogenization tube. Egg yolk and albumin from individual eggs were homogenized with an Omni International (Kennesaw, GA, USA) 125/TM125-11 hand-held homogenizer with a stainless steel 7 mm generator probe. Similar to tissues, 0.5 g of egg homogenate was placed in a 7 mL Precellys bead tissue homogenization tube. Two milliliters of acetonitrile containing 1 ng/mL of ISTD was added. […]

laying hens = test: Response to treatment: clinical monitoring, post-mortem examination and daily egg production; format: in vivo; conditions: 1 or 10 mg/kg single oral gavage
Protocol: as §1
Analytical grade (active) imidacloprid powder (ChemService, West Chester, PA, USA) was dissolved in ethanol (10% v/v), mixed with corn oil, and then further dissolved in Lafeber Nutristart (1:3 in water; Lafeber Co., Cornell, Il, USA) to obtain final concentrations of 0.8 or 0.08 mg/mL.[8],[14] Treatments were prepared on the morning of administration, protected from light, kept on ice, and mixed thoroughly prior to administration. […]
Birds were closely monitored postgavage for any adverse reactions. […]

birds = system: birds; set-up: method as in PMID 32274821; conditions: cited from earlier work
layers = conditions: cited from earlier work
chickens = conditions: in vivo; cited from earlier work
[5] = in vivo; cited from earlier work
[6] = in vivo, po; cited from earlier work
[7] = domestic chickens, 15 days after the last exposure following daily exposure for 7 days
[8] = 10 mg/kg single oral gavage, read-out: time of peak concentration in plasma

Compound: O=C1NCCN1Cc1ccc(Cl)nc1 [IMI-urea, imidacloprid urea]
- time of peak concentration in plasma ([1]; 10 mg/kg single oral gavage): 4 h
- presence of metabolite in sample types ([2]; 10 mg/kg IMI single oral gavage): present in the 10 mg/kg treatment group for all sample types except in the liver
- metabolite abundance in tissues [2]: equally abundant in kidney with 5-OH-IMI
- metabolite concentrations in eggs versus regulatory thresholds [2]: exceeding current regulatory thresholds

Compound: O=[N+]([O-])Nc1nccn1Cc1ccc(Cl)nc1 [IMI-olefin, imidacloprid-olefin]
- time until plasma concentration below the limit of quantitation [1]: ≤ 24 h
- time of peak concentration in plasma ([1]; 10 mg/kg single oral gavage): 4 h
- metabolite abundance in tissues [2]: more abundant metabolite observed in most tissues except in the kidney where it was notably absent
- metabolite concentrations in eggs versus regulatory thresholds [2]: exceeding current regulatory thresholds
- presence in feces, liver, muscle, spleen, kidney and brain [3, 7]: detected

Compound: O=[N+]([O-])NC1=NCCN1Cc1ccc(Cl)nc1 [IMI]
- Tmax ([1]; po, 1 mg/kg): ≤ 1 h
- Tmax ([1]; po, 10 mg/kg): 4 h
- IMI equivalents in adipose tissue versus 50 ppb (50 ng/g) threshold [4]: no animal exceeded
- IMI equivalents in brain, liver, spleen and kidney versus threshold (50 ng/g) [4]: surpassed the threshold for most animals
- IMI equivalents in liver and spleen versus threshold (50 ng/g) [4]: remained in excess of the threshold for several animals
- eggs with IMI equivalents exceeding the CFR regulatory threshold of 20 ppb (20 ng/g) [4]: 6 of 10
- gross lesions at post-mortem examination (laying hens): no gross lesions were observed
- clinical signs (birds; 10 mg/kg IMI administration): moderate sedation occurred within minutes
- clinical signs (birds; birds given 1 mg/kg): no outward clinical signs
- LD50 (layers): 104.1 mg/kg
- adjusted effective dose (ED50) for neurologic signs (chickens): 11.2 mg/kg/day
- time of absorption into the bloodstream [5]: ≤ 1 h
- time of excretion in feces [5]: ≤ 24 h
- residues in liver, pectoral muscle, brain and kidney [6]: detected
- presence in feces, liver, muscle, spleen, kidney and brain ([3]; in vivo): detected

Compound: O=[N+]([O-])/N=C1\NCC(O)N1Cc1ccc(Cl)nc1 (stereo not shown) [5-OH-IMI, 5-hydroxyimidacloprid]
- time until plasma concentration below the limit of quantitation [1]: ≤ 24 h
- Tmax [1, 8]: 4 h
- metabolite abundance in tissues [2]: metabolized predominantly to 5-OH-IMI
- metabolite concentrations in eggs versus regulatory thresholds [2]: exceeding current regulatory thresholds
- presence in feces, liver, muscle, spleen, kidney and brain [3, 7]: detected

Compound: N=C1NCCN1Cc1ccc(Cl)nc1 [desnitro-IMI, desnitro imidacloprid]
- Tmax [1, 8]: 4 h

Compound: O=C(O)c1ccc(O)nc1 [6-OH-NA, 6-hydroxy nicotinic acid]
- presence in fecal matter ([2]; feces collected after IMI single oral gavage): evidence in fecal matter for the formation; also recorded: presence of 6-OH-NA in fecal matter collected at 24 and 48 h post treatment

From article PMC12082688, “Temporal Distribution of Imidacloprid and Its Metabolites in Laying Hens: An Evaluation of the Potential Impact on Food Safety” (Journal of Agricultural and Food Chemistry, 2025)
